# Measured values taken from patent US20240423982A1 (Eli Lilly and Company, priority 2023, published 2024).
# System: new-onset type-1 diabetes patients
# Test: randomized placebo-controlled study of baricitinib 4 mg per day for 48 weeks in new-onset type 1 diabetes
# Assay type: in vivo, human
# Procedure: Participants: Eligibility criteria included age between 10 and 30 years, diagnosis of type 1 diabetes according to ADA criteria within 100 days of starting study drug, presence of at least one islet autoantibody and either random C-peptide>0.3 pmol/mL or C-peptide>0.2 pmol/mL per during a 2 h MMTT. Exclusion criteria included treatment with other immunomodulatory agents, and clinically significant comorbidities including cytopenias, known malignancy, history of thrombosis or LDL cholesterol>155 mg/dL. All participants received standard diabetes management with a target HbA1c of less than 7% in adults and less than 7.5% in participants less than 18 years of age, in accordance with current ADA recommendations.
# Primary, secondary, and exploratory outcomes: The primary outcome was the average C-peptide during a 2 h MMTT at 48 weeks, calculated as the area under the trapezoidal curve divided by 120 minutes. Secondary outcomes included HbA1c, total daily insulin use, CGM measures from the ambulatory glucose profile. Participants were requested to wear either a Freestyle Libre2 or Dexcom G6 CGM for 14 days at baseline, 12, 24, 48, 72 and 96 weeks. Exploratory mechanistic outcomes included the assessment of basal and cytokine-stimulated phosphorylation of STAT proteins in fresh whole blood, and the frequency of T-cell subsets in PBMC. Samples for these were collected at baseline and 24 weeks.
# [1] = weeks 12 and 24, but not week 48, versus placebo
structure (smiles),measurement,setting,value
"CCS(=O)(=O)N1CC(CC#N)(n2cc(-c3ncnc4[nH]ccc34)cn2)C1 [baricitinib, {1-(ethylsulfonyl)-3-[4-(7H-pyrrolo[2,3-d]pyrimidin-4-yl)-1H-pyrazol-1-yl]azetidin-3-yl}acetonitrile]",tolerability,"4 mg per day orally, 48 weeks",well tolerated
same,glucose coefficient of variation (CGM),"12, 24 and 48 weeks, versus placebo",improved significantly
same,HbA1c,"48 weeks, mean±SEM, placebo 7.4±0.27, p=0.216",7.0%
same,insulin use compared to placebo,"FIG. 1B, over treatment",significantly lower insulin use
same,"lipid profile, liver function or renal function versus placebo","baseline, 12, 24, or 48 weeks",no significant differences
same,time below range <70 mg/dl (<3.9 mmol/L) (CGM),between groups,no significant differences
same,median number of AEs,placebo 3,2
same,SAEs attributed to study medication,total of seven SAEs recorded in both groups,none of which were attributed to study medication
same,median C-peptide during 2 h MMTT,"week 48, 4 mg per day orally, placebo 0.45 (0.13-0.63), p=0.001",0.65 (0.31-0.82) pmol/mL/min
same,daily insulin dose,"week 48, median, placebo 0.48 (0.37-0.64), p=0.004",0.39 (0.22-0.57) U/kg/day
same,C-peptide decline compared to baseline,"week 48, placebo 29.5%, p=0.008",5.5%
same,HbA1c difference between groups,"weeks 12, 24 or 48",did not differ significantly
same,daily insulin requirement versus baseline,weeks 12 and 24,decreased below baseline
same,median C-peptide compared to placebo,weeks 12 and 24,significantly higher
same,percent time above 180 mg/dl (10 mmol/l) (CGM),[1],significantly lower
same,percent time between 70 and 180 mg/dL (3.9 and 10 mmol/L) (CGM),[1],higher
